Assay results: BindingDB's records for doi:10.1021/jm020495y (F. Hoffmann-La Roche, 2003)

Columns and labels:
[1] = Antibacterial activity of TMP-susceptible Dihydrofolate reductase against […] ATCC 49619
[2] = Inhibitory activity of TMP-susceptible Dihydrofolate reductase against […] ATCC 49619

## Nc1ncc(CN2CCc3c([nH]c4ccccc34)C2)c(N)n1 [5-(1,3,4,9-Tetrahydro-beta-carbolin-2-ylmethyl)-pyrimidine-2,4-diamine]
[1]
  IC50: 4 nM

## CC1c2ccc3c4ccccc4n(C)c3c2CCN1Cc1cnc(N)nc1N (stereo unspecified) [5-(4,11-Dimethyl-1,2,4,11-tetrahydro-pyrido[4,3-a]carbazol-3-ylmethyl)-pyrimidine-2,4-diamine]
[1]
  IC50: 4 nM
[2]
  IC50: 10 nM

## CC1c2cc(Cc3ccccc3)c(-c3ccccc3)n2CCN1Cc1cnc(N)nc1N (stereo unspecified) [5-(7-Benzyl-1-methyl-6-phenyl-3,4-dihydro-1H-pyrrolo[1,2-a]pyrazin-2-ylmethyl)-pyrimidine-2,4-diamine]
[1]
  IC50: 450 nM

## CSc1c2n(c3cc(Cl)ccc13)CCN(Cc1cnc(N)nc1N)C2 [5-(7-Chloro-10-methylsulfanyl-3,4-dihydro-1H-pyrazino[1,2-a]indol-2-ylmethyl)-pyrimidine-2,4-diamine]
[1]
  IC50: 2 nM

## COc1ccc2c(c1)CN(Cc1cnc(N)nc1N)CC2c1cccc([N+](=O)[O-])c1 (stereo unspecified) [5-[7-Methoxy-4-(3-nitro-phenyl)-3,4-dihydro-1H-isoquinolin-2-ylmethyl]-pyrimidine-2,4-diamine]
[1]
  IC50: 6 nM
